Key:
[1] = molecular target: Serine/threonine-protein kinase Nek11 (Homo sapiens, UniProt Q8NG66); test: Inhibition of recombinant full length human NEK11 using myelin basic protein as substrate measured after 40 mins in presence of [gamma33P]ATP by radiometric scintillation counting analysis
[2] = molecular target: Serine/threonine-protein kinase NLK (Homo sapiens, UniProt Q9UBE8); test: Inhibition of recombinant human NLK (121 to end residues) using protein as substrate measured after 40 mins in presence of [gamma33P]ATP by radiometric scintillation counting analysis
[3] = molecular target: Tyrosine-protein kinase Fgr (Homo sapiens, UniProt P09769); test: Inhibition of recombinant human FGR (2 to end residues) using poly(Glu, Tyr) 4:1 as substrate after 40 mins in presence of [gamma-33ATP] by radiometric scintillation counting analysis
Chain of Tyrosine-protein kinase Fgr (P09769 whole entry, the tested form may be a part): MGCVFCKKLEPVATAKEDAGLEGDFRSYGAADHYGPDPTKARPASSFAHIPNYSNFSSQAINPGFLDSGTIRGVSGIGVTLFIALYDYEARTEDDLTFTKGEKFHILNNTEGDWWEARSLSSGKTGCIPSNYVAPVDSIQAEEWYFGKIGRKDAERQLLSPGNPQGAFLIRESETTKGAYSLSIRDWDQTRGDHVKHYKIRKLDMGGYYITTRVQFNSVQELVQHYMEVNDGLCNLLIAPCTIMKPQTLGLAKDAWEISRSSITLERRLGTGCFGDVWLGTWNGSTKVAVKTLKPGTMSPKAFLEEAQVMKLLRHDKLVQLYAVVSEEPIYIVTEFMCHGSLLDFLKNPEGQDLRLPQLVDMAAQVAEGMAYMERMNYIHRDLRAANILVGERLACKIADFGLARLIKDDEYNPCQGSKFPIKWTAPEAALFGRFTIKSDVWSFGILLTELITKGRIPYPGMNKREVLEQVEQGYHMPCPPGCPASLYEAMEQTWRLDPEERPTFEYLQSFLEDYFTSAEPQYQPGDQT

[4] = molecular target: Mitogen-activated protein kinase kinase kinase kinase 4 (Homo sapiens, UniProt O95819); test: Inhibition of recombinant human MAP4K4 (1 to 328 residues) using RLGRDKYKTLRQI as substrate incubated for 40 mins in presence of [gamma-33ATP by radiometric scintillation counting analysis
CDK3/Cyclin E = CDK3/Cyclin E (Homo sapiens, UniProt Q00526); test: Inhibition of recombinant full length human CDK3/CyclinE using Histone H1 as substrate incubated for 40 mins in presence of [gamma-33ATP] by radiometric scintillation counting analysis; assay type: protein-complex assay
[5] = molecular target: Tyrosine-protein kinase Lck (Homo sapiens, UniProt P06239); test: Inhibition of recombinant full length human LCK using […] as substrate after 40 mins in presence of [gamma-33ATP] by radiometric scintillation counting analysis
[6] = molecular target: Cyclin-dependent kinase 13/Cyclin-K (Homo sapiens, UniProt Q14004); test: Inhibition of recombinant full length human CDK13/cyclinK using RSRSRSRSRSRSR as substrate incubated for 120 mins in presence of [gamma-33ATP] by radiometric scintillation counting analysis; assay type: protein-complex assay
[7] = molecular target: TRAF2 and NCK-interacting protein kinase (Homo sapiens, UniProt Q9UKE5); test: Inhibition of human TNIK (1 to 367 residues) using RLGRDKYKTLRQI as substrate incubated for 40 mins in presence of [gamma33P]ATP by radiometric scintillation counting analysis
[8] = molecular target: Protein kinase C epsilon type (Homo sapiens, UniProt Q02156); test: Inhibition of recombinant human PKCepsilon (2 to end residues) using ERMRPRKRQGSVRR as substrate incubated for 40 mins in presence of [gamma33P]ATP by radiometric scintillation counting analysis
Chain of Protein kinase C epsilon type (Q02156 whole entry): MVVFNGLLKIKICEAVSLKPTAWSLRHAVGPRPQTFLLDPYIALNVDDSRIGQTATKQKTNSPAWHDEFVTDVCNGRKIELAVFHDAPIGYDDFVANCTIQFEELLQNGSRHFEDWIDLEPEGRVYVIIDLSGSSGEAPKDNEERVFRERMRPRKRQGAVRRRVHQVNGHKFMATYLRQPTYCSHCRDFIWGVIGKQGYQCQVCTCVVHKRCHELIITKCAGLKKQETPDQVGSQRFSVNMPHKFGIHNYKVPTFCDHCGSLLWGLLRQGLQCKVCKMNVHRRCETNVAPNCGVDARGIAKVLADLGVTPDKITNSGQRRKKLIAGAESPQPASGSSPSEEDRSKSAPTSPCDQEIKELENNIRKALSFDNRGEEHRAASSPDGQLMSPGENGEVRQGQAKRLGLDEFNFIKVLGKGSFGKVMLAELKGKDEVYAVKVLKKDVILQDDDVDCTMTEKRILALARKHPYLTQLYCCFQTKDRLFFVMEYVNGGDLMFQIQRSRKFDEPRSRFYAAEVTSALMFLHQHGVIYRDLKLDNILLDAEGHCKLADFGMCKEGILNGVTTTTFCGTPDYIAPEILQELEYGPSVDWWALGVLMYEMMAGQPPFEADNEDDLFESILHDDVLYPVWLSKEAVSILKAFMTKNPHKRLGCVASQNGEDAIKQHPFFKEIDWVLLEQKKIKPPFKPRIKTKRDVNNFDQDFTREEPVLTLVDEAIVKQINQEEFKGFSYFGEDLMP

[9] = molecular target: Serine/threonine-protein kinase B-raf (Homo sapiens, UniProt P15056); test: Inhibition of recombinant full length human B-Raf (416 to end residues) using myelin basic protein substrate incubated for 40 mins in presence of [gamma-33ATP] by radiometric scintillation counting analysis
[10] = molecular target: RAC-beta serine/threonine-protein kinase (Homo sapiens, UniProt P31751, S474D); test: Inhibition of recombinant human PKBbeta S474D mutant (120 to end residues) using GRPRTSSFAEGKK as substrate incubated for 40 mins in presence of [gamma33P]ATP by radiometric scintillation counting analysis
[11] = molecular target: Mitogen-activated protein kinase 14 (Homo sapiens, UniProt Q16539); test: Inhibition of recombinant human full length SAPK2a using myelin basic protein as substrate incubated for 40 mins in presence of [gamma33P]ATP by radiometric scintillation counting analysis
[12] = molecular target: G protein-coupled receptor kinase 6 (Homo sapiens, UniProt P43250); test: Inhibition of recombinant full length human GRK6 using casein as substrate after 40 mins in presence of [gamma-33ATP] by radiometric scintillation counting analysis
Insulin receptor = Insulin receptor (Homo sapiens, UniProt P06213); test: Inhibition of human recombinant IR (1005 to 1310 residues) using KKSRGDYMTMQIG as substrate after 40 mins by [gamma-33ATP] by radiometric scintillation counting analysis
[13] = molecular target: Serine/threonine-protein kinase STK11 (Homo sapiens, UniProt Q15831); test: Inhibition of recombinant full length human LKB1 using LSNLYHQGKFLQT as substrate after 40 mins in presence of [gamma-33ATP] by radiometric scintillation counting analysis
[14] = molecular target: Insulin-like growth factor 1 receptor (Homo sapiens, UniProt P08069); test: Inhibition of human recombinant IGF1R (959 to end residues) using KKKSPGEYVNIEF as substrate after 40 mins by [gamma-33ATP] by radiometric scintillation counting analysis
[15] = molecular target: Serine/threonine-protein kinase NIM1 (Homo sapiens, UniProt Q8IY84); test: Inhibition of recombinant full length human NIM1 using KKKVSRSGLYRSP as substrate measured after 40 mins in presence of [gamma33P]ATP by radiometric scintillation counting analysis
[16] = molecular target: Serine/threonine-protein kinase BRSK1 (Homo sapiens, UniProt Q8TDC3); test: Inhibition of recombinant human BRSK1 ( 2 to end residues) using KKKVSRSGLYRSP substrate incubated for 40 mins in presence of [gamma-33ATP] by radiometric scintillation counting analysis
Chain of Serine/threonine-protein kinase BRSK1 (Q8TDC3 whole entry, the tested form may be a part): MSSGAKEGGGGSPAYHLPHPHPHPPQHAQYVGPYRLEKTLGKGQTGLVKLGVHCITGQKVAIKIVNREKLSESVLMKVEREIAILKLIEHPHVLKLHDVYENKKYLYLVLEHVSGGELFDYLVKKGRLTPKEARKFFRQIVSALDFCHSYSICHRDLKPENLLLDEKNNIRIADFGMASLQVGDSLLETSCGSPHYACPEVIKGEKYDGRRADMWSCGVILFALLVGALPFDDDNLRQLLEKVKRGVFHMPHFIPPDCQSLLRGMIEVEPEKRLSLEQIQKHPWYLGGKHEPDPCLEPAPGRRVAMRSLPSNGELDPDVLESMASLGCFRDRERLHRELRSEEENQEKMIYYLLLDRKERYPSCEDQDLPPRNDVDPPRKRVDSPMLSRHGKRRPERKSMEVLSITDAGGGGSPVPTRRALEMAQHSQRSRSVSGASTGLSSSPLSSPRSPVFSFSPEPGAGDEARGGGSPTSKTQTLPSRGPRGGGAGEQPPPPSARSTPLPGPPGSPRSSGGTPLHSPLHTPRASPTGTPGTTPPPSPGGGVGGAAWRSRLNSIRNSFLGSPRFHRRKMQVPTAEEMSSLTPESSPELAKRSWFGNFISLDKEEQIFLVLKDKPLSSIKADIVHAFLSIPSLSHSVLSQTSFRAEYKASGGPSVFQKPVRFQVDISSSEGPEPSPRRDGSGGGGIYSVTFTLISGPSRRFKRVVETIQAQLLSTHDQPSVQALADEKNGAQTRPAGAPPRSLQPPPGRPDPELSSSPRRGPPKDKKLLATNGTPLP

LIM domain kinase 1 = LIM domain kinase 1 (Homo sapiens, UniProt P53667); test: Inhibition of recombinant human LIMK1 (285 to 638 residues) using cofilin as substrate after 40 mins in presence of [gamma-33ATP] by radiometric scintillation counting analysis
[17] = molecular target: Mast/stem cell growth factor receptor Kit (Homo sapiens, UniProt P10721, D816H); test: Inhibition of recombinant human C-Kit D816H mutant (544 to end residues) using poly(Glu, Tyr) 4:1 as substrate incubated 40 mins in presence of [gamma-33ATP] by radiometric scintillation counting analysis
Chain of Mast/stem cell growth factor receptor Kit (P10721 26-976 D816H limits assumed): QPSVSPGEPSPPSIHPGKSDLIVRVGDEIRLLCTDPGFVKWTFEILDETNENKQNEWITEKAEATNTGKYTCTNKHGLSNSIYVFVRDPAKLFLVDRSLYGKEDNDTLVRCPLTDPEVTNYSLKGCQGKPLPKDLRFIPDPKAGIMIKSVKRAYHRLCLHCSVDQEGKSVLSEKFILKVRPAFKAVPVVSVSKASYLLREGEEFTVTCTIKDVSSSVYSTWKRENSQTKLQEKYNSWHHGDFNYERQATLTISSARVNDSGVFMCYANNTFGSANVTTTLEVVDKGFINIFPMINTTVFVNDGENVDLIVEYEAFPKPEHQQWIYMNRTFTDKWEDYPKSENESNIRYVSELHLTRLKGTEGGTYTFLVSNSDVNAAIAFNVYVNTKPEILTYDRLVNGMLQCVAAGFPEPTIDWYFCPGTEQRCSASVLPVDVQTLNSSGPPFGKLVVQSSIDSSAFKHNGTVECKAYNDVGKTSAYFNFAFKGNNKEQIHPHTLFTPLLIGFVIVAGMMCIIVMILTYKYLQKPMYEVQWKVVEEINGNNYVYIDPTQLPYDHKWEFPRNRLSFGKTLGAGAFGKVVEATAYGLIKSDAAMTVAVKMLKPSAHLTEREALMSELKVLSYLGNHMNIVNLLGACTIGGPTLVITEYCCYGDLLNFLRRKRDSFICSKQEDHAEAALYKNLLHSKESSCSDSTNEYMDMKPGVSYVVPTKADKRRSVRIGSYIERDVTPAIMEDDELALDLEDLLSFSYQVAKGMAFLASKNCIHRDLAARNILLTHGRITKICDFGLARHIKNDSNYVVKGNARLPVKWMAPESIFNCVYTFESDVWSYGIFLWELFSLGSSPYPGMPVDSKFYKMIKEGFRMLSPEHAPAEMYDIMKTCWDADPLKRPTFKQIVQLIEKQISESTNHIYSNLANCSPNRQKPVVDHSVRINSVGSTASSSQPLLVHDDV

[18] = molecular target: Leucine-rich repeat serine/threonine-protein kinase 2 (Homo sapiens, UniProt Q5S007); test: Inhibition of recombinant human LRRK2 (970 to end residues) using RLGRDKYKTLRQI as substrate after 40 mins in presence of [gamma-33ATP] by radiometric scintillation counting analysis
[19] = Inhibition of recombinant human DDR1 V833L mutant (492 to end residues) using KKKSPGEYVNIEF as substrate after 40 mins in presence of [gamma-33ATP] by radiometric scintillation counting analysis
[20] = molecular target: Tyrosine-protein kinase BTK (Homo sapiens, UniProt Q06187); test: Inhibition of recombinant full length human BTK using KVEKIGEGTYGVV substrate incubated for 40 mins in presence of [gamma-33ATP] by radiometric scintillation counting analysis
[21] = molecular target: Hepatocyte growth factor receptor (Homo sapiens, UniProt P08581, Y1230H); test: Inhibition of recombinant human MET A1209G/V1290L/Y1248H triple mutant (974 to end residues) using KKKGQEEEYVFIE as substrate incubated for 40 mins in presence of [gamma-33ATP by radiometric scintillation counting analysis
Chain of Hepatocyte growth factor receptor (P08581 25-1390 Y1230H limits assumed): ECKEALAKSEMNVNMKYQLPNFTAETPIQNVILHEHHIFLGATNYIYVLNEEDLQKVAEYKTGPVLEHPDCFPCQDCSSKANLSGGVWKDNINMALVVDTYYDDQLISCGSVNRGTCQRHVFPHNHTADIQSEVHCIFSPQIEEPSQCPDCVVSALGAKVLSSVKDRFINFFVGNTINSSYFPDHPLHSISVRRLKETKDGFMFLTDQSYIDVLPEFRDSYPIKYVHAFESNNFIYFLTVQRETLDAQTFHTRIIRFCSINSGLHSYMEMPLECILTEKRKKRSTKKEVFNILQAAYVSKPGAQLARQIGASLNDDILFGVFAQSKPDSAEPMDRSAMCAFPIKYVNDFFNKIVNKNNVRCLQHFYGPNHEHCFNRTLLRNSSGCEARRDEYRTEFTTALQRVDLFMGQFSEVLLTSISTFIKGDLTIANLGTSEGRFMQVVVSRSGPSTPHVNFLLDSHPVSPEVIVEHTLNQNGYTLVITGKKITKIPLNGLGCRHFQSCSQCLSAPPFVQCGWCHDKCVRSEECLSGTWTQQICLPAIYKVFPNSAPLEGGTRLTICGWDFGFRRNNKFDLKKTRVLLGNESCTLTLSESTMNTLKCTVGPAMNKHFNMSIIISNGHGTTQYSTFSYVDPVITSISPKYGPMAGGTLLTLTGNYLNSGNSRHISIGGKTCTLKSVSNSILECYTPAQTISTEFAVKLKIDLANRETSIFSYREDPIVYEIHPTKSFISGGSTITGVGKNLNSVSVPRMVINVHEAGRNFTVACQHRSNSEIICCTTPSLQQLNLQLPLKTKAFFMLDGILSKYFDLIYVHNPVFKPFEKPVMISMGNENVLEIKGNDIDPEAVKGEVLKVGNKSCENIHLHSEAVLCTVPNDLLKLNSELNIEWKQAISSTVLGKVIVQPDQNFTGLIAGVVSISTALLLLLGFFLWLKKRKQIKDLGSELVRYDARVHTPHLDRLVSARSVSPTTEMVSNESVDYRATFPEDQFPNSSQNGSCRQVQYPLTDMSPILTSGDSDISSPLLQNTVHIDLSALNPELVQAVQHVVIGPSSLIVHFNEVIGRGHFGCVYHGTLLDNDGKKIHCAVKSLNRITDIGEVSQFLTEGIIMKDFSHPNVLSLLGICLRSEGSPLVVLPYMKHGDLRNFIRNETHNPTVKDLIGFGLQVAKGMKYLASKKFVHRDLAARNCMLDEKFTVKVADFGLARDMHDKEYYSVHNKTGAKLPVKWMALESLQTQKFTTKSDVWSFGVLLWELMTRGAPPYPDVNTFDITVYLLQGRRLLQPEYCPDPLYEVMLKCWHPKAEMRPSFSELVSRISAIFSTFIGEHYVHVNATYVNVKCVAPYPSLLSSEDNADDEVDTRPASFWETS

[22] = molecular target: Serine/threonine-protein kinase 16 (Homo sapiens, UniProt O75716); test: Inhibition of human STK16 in presence of 10 uM ATP by radiometric analysis
[23] = molecular target: Serine/threonine-protein kinase BRSK2 (Homo sapiens, UniProt Q8IWQ3); test: Inhibition of recombinant human BRSK2 (2 to end residues) using KKLNRTLSFAEPG substrate incubated for 40 mins in presence of [gamma-33ATP] by radiometric scintillation counting analysis

Measured: IC50

Chain of Serine/threonine-protein kinase Nek11 (Q8NG66 whole entry): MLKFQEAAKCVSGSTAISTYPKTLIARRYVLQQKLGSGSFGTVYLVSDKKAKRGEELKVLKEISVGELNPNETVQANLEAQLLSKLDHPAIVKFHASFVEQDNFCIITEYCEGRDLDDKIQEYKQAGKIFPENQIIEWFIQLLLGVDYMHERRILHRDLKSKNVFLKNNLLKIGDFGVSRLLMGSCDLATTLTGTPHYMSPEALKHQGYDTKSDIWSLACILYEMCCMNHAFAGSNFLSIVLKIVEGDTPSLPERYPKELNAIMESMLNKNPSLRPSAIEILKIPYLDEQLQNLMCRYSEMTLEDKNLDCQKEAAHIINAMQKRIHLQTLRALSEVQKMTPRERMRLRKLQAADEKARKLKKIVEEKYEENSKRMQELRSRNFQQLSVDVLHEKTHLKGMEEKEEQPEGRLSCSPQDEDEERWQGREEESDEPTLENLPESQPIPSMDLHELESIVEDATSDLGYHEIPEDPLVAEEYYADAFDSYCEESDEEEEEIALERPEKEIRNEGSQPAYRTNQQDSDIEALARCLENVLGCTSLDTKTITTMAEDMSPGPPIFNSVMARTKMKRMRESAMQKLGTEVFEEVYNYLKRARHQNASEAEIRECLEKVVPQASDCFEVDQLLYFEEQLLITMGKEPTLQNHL

CN(C)c1ccc(C(=O)Nc2cccc(NC(=O)COc3ccc4c(=O)ccoc4c3)c2)cc1
> 10 µM: all assays above

Reference: ChEMBL document CHEMBL4376834, “Discovery of 4H-Chromen-4-one Derivatives as a New Class of Selective Rho Kinase (ROCK) Inhibitors, which Showed Potent Activity in ex Vivo Diabetic Retinopathy Models” (J Med Chem, 2019)
